# According to US20240009156A1, “METHODS AND FORMULATIONS FOR PRENATAL TREATMENT OF ALLAN-HERNDON-DUDLEY SYNDROME” (PriZm, LLC, priority 2022, published 2024):
# Key:
# [1] = human, in vivo; cited from earlier work
# wild type mice = conditions: T3-treated wild type mice; cited from earlier work
# [2] = Effect of DITPA on removal of gastrostomy tube (G-tube); format: in vivo, human; conditions: one child who started DITPA while having a G-tube
# [3] = tested on: MCT8 mutant (mct8−/−) zebrafish; conditions: cited from earlier work
# [4] = tested on: MCT8-mutant (mct82/2) larvae; conditions: cited from earlier work
# [5] = tested on: MCT8-deficient (knockout) mice (Mct8KO); conditions: cited from earlier work
# [6] = T3 and T4 concentration in humans with MCT8 deficiency; format: in vivo
smiles,measurement,setting,value
"O=C(O)Cc1cc(I)c(Oc2ccc(O)c(I)c2)c(I)c1 [TRIAC, triiodothyroacetic acid]",effects in pediatric subjects,[1],analog Triac has also been studied in pediatric subjects with positive
"N[C@@H](Cc1cc(I)c(Oc2ccc(O)c(I)c2)c(I)c1)C(=O)O [T3, triiodothyronine]",TEE (total energy expenditure),wild type mice,"mice showed increased food intake and TEE, similar to MCT8KO mice."
same,food intake,wild type mice,"mice showed increased food intake and TEE, similar to MCT8KO mice."
"O=C(O)CCc1cc(I)c(Oc2ccc(O)cc2)c(I)c1 [DITPA, 3,5-diiodothyropropionic acid]",G-tube,[2],removed
same,body weight,[2],gained weight
same,hypomyelination in the CNS,[3],TH analogs partially rescued the hypomyelination in the CNS of MCT8
same,myelin and axon outgrowth deficiencies,[4],restored the myelin and axon outgrowth deficiencies in mct82/2 larvae
same,TH deficit,[5],corrects the TH deficit
same,analysis of TH target genes: thyrotoxic state in the liver,[5],target genes revealed amelioration of the thyrotoxic state in the liver
same,measurements and other parameters of TH action,[5],SRW101 normalized all measurements and other parameters of TH
same,thyrotoxic effect in the liver,[5],without causing
same,T3 concentration,[6],reduction
same,T4 concentration,[6],increase
